Tests used:
ATF6 = assay: Immunoblot of the 50 kDa ATF6 fragment; format: cell-based; settings: immunoblotting
Procedure: For immunoblotting, cells were lysed in 50 mM Tris buffer, pH 7.5 containing 0.1% TritonX (Fisher Scientific) and supplemented with protease inhibitor cocktail (Roche). For immunoblots of endogenous ATF6, cells were washed in PBS containing protease inhibitor cocktail and 10 μM MG-132 and subsequently lysated in 1× Laemmli buffer, supplemented in the same way, by repeating cycles of boiling and vortexing. Protein lysate concentrations were normalized by Bradford assays (Bio-Rad). Lysates or media were boiled for 10 min in Laemmli buffer+100 mM DTT before loading onto SDS-PAGE gel. Proteins were transferred from gel slabs to nitrocellulose, and the Odyssey Infrared Imaging System (Li-Cor Biosciences) was used to detect proteins of interest.

ALMC-2 cells = assay: ALMC-2 cell viability (CellTiter-Glo); format: cell-based, human; settings: 10 μM
Procedure: HepG2 cells were plated at 5,000 cells/well in a translucent, flat-bottomed 96 well plate, and treated for 48 hr with vehicle, 10 μM Tg or 10 μM ER proteostasis regulator. ALMC-2 or KAS-6/1 cells were plated at 33,000 cells/well in 96-well plates then treated with proteostasis regulators for 16 h as described. Cell metabolic activity was measured using the CellTiter-Glo assay (Promega), which reports on intracellular ATP concentration. CellTiter-Glo reagent was added to cell culture media at a 1:1 ratio and incubated for 2 minutes on an orbital shaker to induce cell lysis. The plate was then incubated at room temperature for 10 minutes to stabilize the luminescent signal and read on a Tecan F200 Pro microplate reader.

[1] = tested on: GFP-ATF6 in U2OS-GFP-ATF6 cells; assay: ATF6 nuclear localization, high-content imaging; format: cell-based; settings: 10 μM, 5 h
Procedure: 300 μL of 1.375×10^4 U2OS-GFP-ATF6 cells per ml were plated per well in 96 well imaging plate (ibidi 89626) and sealed with breathable seals (E&K Scientific T896100) two days prior to drug addition. Immediately prior to addition to cells, compounds were diluted to 6× in media from 500×DMSO stock and 60 μL 6× was added to cells for 1× final (0.2% DMSO).
After 5h, media was removed and cells were fixed in 4% PFA (Electron Microscopy Sciences 15714) in PHEM buffer (60 mM PIPES, 25 mM HEPES, 10 mM EGTA, 2 mM MgCl2-hexahydrate, pH 6.9) for 15 minutes at RT. […]
Images were analyzed using CellProfiler^7, MATLAB R2014a and GraphPad Prism 5. […] The ratio of the GFP intensity in the nucleus versus the ER was calculated for each cell and plotted as a histogram per well. A threshold for the minimum ratio of nuclear to ER signal corresponding to an activated (i.e. nuclear localized ATF6) cell was calculated as the minimum nuclear: ER ratio greater than 1 where the number of ER stressed cells (Tg) was greater than the corresponding unstressed control. Percent activation per well was calculated as the percentage of cells per well with a nuclear: ER ratio greater than the calculated threshold for that plate. […]

[2] = tested on: ALLC (amyloidogenic light chain); assay: ALLC secretion from ALMC-2 cells after cycloheximide administration; format: cell-based, human; settings: absence of new protein synthesis
[3] = tested on: ERSE-FLuc reporter (ATF6 arm of the UPR); assay: ERSE-FLuc reporter, 96-well, HEK293T-Rex cells (SAR and S1P inhibition); format: cell-based; settings: HEK293T-Rex; 10 μM
Procedure: HEK293T-Rex cells incorporating the ERSE-FLuc reporter and HEK293^DAX cells were plated approximately 20,000 cells/well in flat-bottomed, black 96-well assay plates (Costar, Corning, Inc.) overnight prior to compound administration. Cells were treated with compounds as described for 12-18 h then the plates were equilibrated to room temperature and 50 μL of SteadyLite (PerkinElmer) was added to each well. Luminescence activity was measured in a Safire II microplate reader with a 1000 ms integration time.

Row | SMILES | accumulation of the 50 kDa ATF6 fragment (S1P/S2P proteolysis) (ATF6) | reduction in cell viability (ALMC-2 cells) | nuclear fraction of ATF6-GFP (ATF6 nuclear translocation) [1] | cell viability (in words) (ALMC-2 cells) | reduction in ALLC secretion after cycloheximide [2] | ERSE reporter activity relative to 263 [3]
1 | Cc1ccc(O)c(N/C=C/C(=O)c2ccc(F)cc2)c1 [Compound 132] | increased accumulation | 45% | significantly increased | – | – | –
2 | Cc1ccc(O)c(NC(=O)CCc2ccccc2)c1 [Compound 147] | – | – | – | do not significantly affect | ~30% | –
3 | O=[N+]([O-])c1ccc(N/N=C/c2ccccc2O)cc1 [Compound 263] | increased accumulation | – | significantly increased | – | – | slightly increase

Source: patent US11135186B2, “Regulators of the endoplasmic reticulum proteostasis network” (The Scripps Research Institute, priority 2015, dated 2021)
